Entries after “also recorded” stand apart in the source; their conditions may differ.
Assays:
[1] = biological target: recombinant human estradiol receptors (rhER) alpha (α) (Homo sapiens (Human), UniProt P03372); test: competitive radio-ligand binding assay, rhER alpha; conditions: at as high as 2.5×E-4 molar concentration
[2] = tested on: alpha or beta in vitro estradiol receptors; test: competitive radio-ligand binding assay, statements that do not separate alpha and beta; set-up: species or system human; conditions: alpha or beta receptor not separated; for estradiol binding / estradiol displacement: highest concentration 2.5×E-4 M
[3] = biological target: recombinant human estradiol receptors (rhER) beta 1 (β1) (Homo sapiens (Human), UniProt Q92731); test: competitive radio-ligand binding assay, rhER beta 1; conditions: at as high as 2.5×E-4 molar concentration
Chain of recombinant human estradiol receptors (rhER) beta 1 (β1) (Q92731 whole entry): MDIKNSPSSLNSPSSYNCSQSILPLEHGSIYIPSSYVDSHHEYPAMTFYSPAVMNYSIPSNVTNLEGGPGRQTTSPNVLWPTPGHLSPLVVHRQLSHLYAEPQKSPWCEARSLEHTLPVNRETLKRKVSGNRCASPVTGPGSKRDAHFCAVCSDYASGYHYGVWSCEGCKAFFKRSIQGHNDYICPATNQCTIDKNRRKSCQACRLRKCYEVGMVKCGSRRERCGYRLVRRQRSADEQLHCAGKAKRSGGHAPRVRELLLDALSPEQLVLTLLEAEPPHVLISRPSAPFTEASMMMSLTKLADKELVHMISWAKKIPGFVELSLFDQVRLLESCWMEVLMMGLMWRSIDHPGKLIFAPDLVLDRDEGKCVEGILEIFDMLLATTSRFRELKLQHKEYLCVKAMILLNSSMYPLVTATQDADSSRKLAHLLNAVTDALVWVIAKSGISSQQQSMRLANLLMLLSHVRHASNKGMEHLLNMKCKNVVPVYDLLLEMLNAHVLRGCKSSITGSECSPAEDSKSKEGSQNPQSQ

Chain of recombinant human estradiol receptors (rhER) alpha (α) (P03372 whole entry): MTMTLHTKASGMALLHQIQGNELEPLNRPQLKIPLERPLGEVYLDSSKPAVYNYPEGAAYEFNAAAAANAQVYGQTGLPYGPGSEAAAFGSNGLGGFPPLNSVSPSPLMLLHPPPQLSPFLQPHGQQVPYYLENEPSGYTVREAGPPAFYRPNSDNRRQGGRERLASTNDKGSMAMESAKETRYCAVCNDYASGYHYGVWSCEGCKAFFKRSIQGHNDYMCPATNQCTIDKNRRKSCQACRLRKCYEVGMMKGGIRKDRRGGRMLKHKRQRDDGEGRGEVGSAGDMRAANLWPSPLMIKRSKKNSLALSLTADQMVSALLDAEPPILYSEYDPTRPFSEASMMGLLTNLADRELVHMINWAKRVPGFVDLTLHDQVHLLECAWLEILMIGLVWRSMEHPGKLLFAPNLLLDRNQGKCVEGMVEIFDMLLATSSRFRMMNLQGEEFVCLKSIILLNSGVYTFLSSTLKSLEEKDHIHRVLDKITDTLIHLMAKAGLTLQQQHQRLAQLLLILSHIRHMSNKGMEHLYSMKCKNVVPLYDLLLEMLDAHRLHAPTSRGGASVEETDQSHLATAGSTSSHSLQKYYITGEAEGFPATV

Molecule: Biphenol [Example 6]
- estradiol displacement at the alpha receptor [1]: no displacement
- estradiol binding / estradiol displacement [2]: no estradiol binding

Molecule: Cc1cc(C2(c3ccc(O)c(C)c3)CCCCC2)ccc1O [G, Dimethyl Cyclohexyl Bisphenol, reference compound]
- estradiol binding / estradiol displacement [2]: displace estradiol at low concentrations

Molecule: CC(C)(c1ccc(O)cc1)c1cccc(C(C)(C)c2ccc(O)cc2)c1 [K, Bisphenol M, reference compound]
- estradiol binding / estradiol displacement [2]: displace estradiol at low concentrations

Molecule: CC(C)(c1ccccc1)c1ccc(O)cc1 [B, p-Cumyl Phenol, reference compound]
- estradiol binding / estradiol displacement [2]: displace estradiol at low concentrations

Molecule: Bis Hydroxy Phenyl Menthane [reference compound]
- estradiol binding / estradiol displacement [2]: displace estradiol at low concentrations

Molecule: Cc1cc(C(C)(C)c2cc(C)c(O)c(C)c2)cc(C)c1O [Example 1, Tetra Methyl BPA]
- estradiol binding / estradiol displacement [2]: no estradiol binding

Molecule: Benzophenone bisphenol [reference compound]
- estradiol binding / estradiol displacement [2]: undesirable estradiol displacement at low concentration

Molecule: Cc1cc(O)ccc1O [Example 8, Methyl Hydroquinone]
- estradiol displacement at the beta receptor [3]: no alpha or beta estradiol displacement
- estradiol binding / estradiol displacement [2]: no displacement; also recorded: no estradiol binding

Molecule: O=C1OC(c2ccc(O)cc2)(c2ccc(O)cc2)c2ccccc21 [O, Phenolphthalein, reference compound]
- estradiol binding / estradiol displacement [2]: undesirable estradiol displacement at low concentration

Molecule: Oc1cccc(O)c1 [Example 4, Resorcinol]
- estradiol displacement at the alpha receptor [1]: no detectible estradiol displacement
- estradiol displacement at the beta receptor [3]: no detectible estradiol displacement
- estradiol binding / estradiol displacement [2]: no estradiol binding

Molecule: CC(c1ccccc1)(c1ccc(O)cc1)c1ccc(O)cc1 [D, Bisphenol Acetophenone, reference compound]
- estradiol binding / estradiol displacement [2]: displace estradiol at low concentrations

Molecule: C[C@]12CC[C@@H]3c4ccc(O)cc4CC[C@H]3[C@@H]1CC[C@@H]2O [A, 17b-estradiol, reference compound]
- estradiol binding / estradiol displacement [2]: binds at a very low concentration

Molecule: Oc1ccc(Oc2ccc(O)cc2)cc1 [Example C, Dihydroxy Diphenyl Ether, reference compound]
- estradiol binding / estradiol displacement [2]: displace estradiol at low concentrations

Molecule: Dimethyl Acetophenone Bisphenol [reference compound]
- estradiol binding / estradiol displacement [2]: displace estradiol at low concentrations

Molecule: CC(C)(C)c1cc(O)c(C(C)(C)C)cc1O [Example 7, Di t-Butyl Hydroquinone]
- estradiol displacement at the alpha receptor [1]: no displacement
- estradiol displacement at the beta receptor [3]: no displacement
- estradiol binding / estradiol displacement [2]: no estradiol binding
- estradiol binding / estradiol displacement ([2]; listed as di-tert butyl hydroquinone): no displacement

Molecule: O=C1c2ccccc2C(c2ccc(O)cc2)(c2ccc(O)cc2)N1c1ccccc1 [Example 3, N-Phenyl Phenolphthalein Bisphenol]
- estradiol displacement at the alpha receptor [1]: no detectible estradiol displacement
- estradiol displacement at the beta receptor [3]: no detectible estradiol displacement
- estradiol binding / estradiol displacement [2]: no estradiol binding
- estradiol binding / estradiol displacement ([2]; listed as N-phenyl phenyl phenolphthalein): no displacement

Molecule: Oc1ccccc1 [Example 2, Phenol]
- estradiol binding / estradiol displacement [2]: no estradiol binding
- IC50 ([2]; highest concentration tested 2.5×E-4 M): ≥ 250 µM

Molecule: Spiro Biindane Bisphenol [Example 5]
- estradiol binding / estradiol displacement [2]: no displacement; also recorded: no estradiol binding

Molecule: Diphenolic Acid Methyl Ester [F, reference compound]
- estradiol binding / estradiol displacement [2]: displace estradiol at low concentrations

From patent US9688816B2, “Polyetherimide compositions and methods for the manufacture and use thereof” (SABIC Global Technologies B.V., priority 2011, dated 2017)
